# PubChem BioAssay AID608 (Sanford-Burnham Center for Chemical Genomics, 2007)
# “And” between values parts separate entries of the source, which are not always exact repeats. Identical values can stand only once. The source made the active and inactive calls. How the calls were made is not given here.
# Biological target: Peptidyl-prolyl cis-trans isomerase FKBP1A (Homo sapiens) (UniProt P62942)
# Assay: FKBP12 binders, biophysical, NMR detection (AID 608)
# Details: NMR binding, purified FKBP12
# Chain of Peptidyl-prolyl cis-trans isomerase FKBP1A (Homo sapiens) (P62942 whole entry, looked up): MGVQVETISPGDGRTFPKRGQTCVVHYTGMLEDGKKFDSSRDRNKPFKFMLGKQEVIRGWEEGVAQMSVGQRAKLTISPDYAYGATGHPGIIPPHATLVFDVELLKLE
row,Compound,Kd
1,O=C(O)c1cn(-c2ccccc2)nc1-c1ccncc1,> 4 mM (inactive)
2,CCOc1ccc(-c2c(=O)n(O)c3ccccc3[n+]2[O-])cc1,> 4 mM (inactive)
3,Cc1nc2ccccc2c(=O)n1NC(=O)Nc1ccccc1,> 4 mM (inactive)
4,Nc1ccccc1C(=O)CC(N)C(=O)O (centres undefined),> 4 mM (inactive)
5,Cc1ccc(OCC(=O)N2CCOCC2)cc1C,inactive
6,NS(=O)(=O)c1ccc2c3c(cccc13)C(=O)N2,> 4 mM (inactive)
7,CC1(C)C(=O)C=C[C@@]2(C)C1CC(=O)[C@]1(C)C2CC[C@@]2(C)[C@H](c3ccoc3)OC(=O)[C@H]3O[C@]321 (some centres undefined),> 4 mM (inactive)
8,O=C(Nc1ccccc1Cl)c1cnccn1,> 4 mM (inactive)
9,CN1C(=O)c2ccc(C(=O)NCc3ccccc3)cc2C1=O,> 4 mM (inactive)
10,CCn1cnc2sc(C(=O)O)c(C)c2c1=O,> 4 mM (inactive)
11,CC(=O)Nc1ccccc1OCC(N)=O,> 4 mM (inactive)
12,CC(=O)OC[C@@]1(O)C[C@@]23CCC4c5ccoc5CC[C@]4(C)C2CC[C@@H]1C3 (some centres undefined),> 4 mM (inactive)
13,O=C(Nc1nnc(-c2ccco2)o1)c1ccc([N+](=O)[O-])o1,> 4 mM (inactive)
14,Cc1ccc(C(=O)N2CCC(C(N)=O)CC2)cc1C,> 4 mM (inactive)
15,O=C1CC(=O)N(c2ccccc2)C(=O)N1,> 4 mM (inactive)
16,NC1=NC(=O)C(Cc2ccccc2)S1 (centres undefined),> 4 mM (inactive)
17,C=C1C2CC[C@@]3(C)[C@H](c4ccoc4)OC(=O)C[C@]13O[C@H]1CC(=O)C(C)(C)[C@H](C(OC(C)=O)C(=O)OC)[C@@]21C (some centres undefined),> 4 mM (inactive)
18,CNC(Cc1c[nH]c2ccccc12)C(=O)O (centres undefined),> 4 mM (inactive)
19,Cn1c(CO)nc2cc(N)ccc21,> 4 mM (inactive)
20,O=C1Nc2ccc(S(=O)(=O)NCCO)c3cccc1c23,> 4 mM (inactive)
21,COc1ccc(-c2nnc(-c3ccc(N)cc3)o2)cc1,> 4 mM (inactive)
22,COC1(C)CCC2OC2(C)CCC2C1CC2(C)C (centres undefined),> 4 mM (inactive)
23,CCCCC(Nc1n[nH]c(=O)[nH]c1=O)C(=O)O (centres undefined),> 4 mM (inactive)
24,CN1CCN(C(=O)c2ccco2)CC1,> 4 mM (inactive)

row,Compound,Kd
1,CCOC(=O)c1csc(C2COc3ccccc3O2)n1 (centres undefined),> 4 mM (inactive)
2,O=C1CCC(C(=O)NCc2ccc(Cl)cc2)N1 (centres undefined),> 4 mM (inactive)
3,Cc1ccc(CN2C3=NC(=O)CN3c3ccccc32)cc1,> 4 mM (inactive)
4,CC(C)=CC(=O)Nc1ccc(S(N)(=O)=O)cc1,> 4 mM (inactive)
5,O=C(Nc1ccon1)c1sc2cc(F)ccc2c1Cl,> 4 mM (inactive)
6,O=C(COc1ccc(S(=O)(=O)Nc2cccc(C(F)(F)F)c2)cc1)N1CCOCC1,inactive
7,COc1ccc(CN2CCOCC2)c(C)c1C,> 4 mM (inactive)
8,Cc1occc1C(=O)Nc1nnc(-c2ccncc2)s1,> 4 mM (inactive)
9,CC(=O)Nc1ccc2c(C)cc(=O)[nH]c2c1,> 4 mM (inactive)
10,OCC1CN(Cc2ccccc2)CCO1 (centres undefined),> 4 mM (inactive)
11,COC(=O)c1cc(C)on1,> 4 mM (inactive)
12,O=c1[nH]c(=S)[nH]c2c1CCC2,> 4 mM (inactive)
13,O=C(O)c1ccc(N2CCOCC2)cc1,> 4 mM (inactive)
14,COC(=O)Nc1nc2c(s1)CCCC2,> 4 mM (inactive)
15,O=C(O)c1ccc(-n2cccc2)cc1,> 4 mM (inactive)
16,Cn1c(O)c(C=NCC2CCNCC2)c(=O)n(C)c1=O,> 4 mM (inactive)
17,O=C(O)c1cc2ccccc2s1,> 4 mM (inactive)
18,Cc1cc(C)n2c(SCc3c(C)noc3C)nnc2n1,> 4 mM (inactive)
19,CCOC(=O)c1ccc2c(c1)nnn2C,> 4 mM (inactive)
20,NC(=O)C1CC2C=CC1C2 (centres undefined),> 4 mM (inactive)
21,CCOc1cc(S(=O)(=O)n2nc(C)cc2C)ccc1F,> 4 mM (inactive)
22,CCc1ccccc1OCC(=O)N1CCOCC1,> 4 mM (inactive)
23,CCOc1ccccc1C(=O)NC1=NCCS1,> 4 mM (inactive)
24,CCOC(=O)c1c(C)nc2cc(C)ccn12,> 4 mM (inactive)

row,Compound,Kd
1,CCOC(=O)c1cnc2cc(C)nn2c1C,> 4 mM (inactive)
2,COc1c(CC=C(C)C)c2c(c3oc(=O)c(-c4ccc(O)cc4)c(O)c13)C=CC(C)(C)O2,> 4 mM (inactive)
3,O=C1NC2NC(=O)N(c3ccccc3)C2N1 (centres undefined),> 4 mM (inactive)
4,COC1C=CC23c4cc5c(cc4CN(CC2O)[C@@H]3C1)OCO5 (some centres undefined),> 4 mM (inactive)
5,CCOC(=O)c1[nH]cnc1C(=O)OC(C)C,> 4 mM (inactive)
6,NCc1ccc(-n2cccn2)cc1,> 4 mM (inactive)
7,O=C(COc1ccc(F)cc1)N1CCOCC1,inactive
8,Nc1nc(-c2ccccc2)cc(=O)[nH]1,> 4 mM (inactive)
9,O=C(O)c1snnc1-c1ccccc1,> 4 mM (inactive)
10,c1coc(-c2nc(-c3ccncc3)no2)c1,> 4 mM (inactive)
11,CCOc1ccc(C)cc1S(=O)(=O)n1ccc(C)n1,> 4 mM (inactive)
12,O=C(Cc1ccccc1)Nc1c[nH]c(=O)[nH]c1=O,> 4 mM (inactive)
13,Nc1ncnc2c1ncn2CCOc1ccccc1,> 4 mM (inactive)
14,CCOc1ccc(C(=O)c2ccc(O)c(O)c2O)cc1,> 4 mM (inactive)
15,COC(=O)C1Cc2ccccc2N1 (centres undefined),> 4 mM (inactive)
16,NC(=O)/C=C/C(=O)Nc1ccccc1,> 4 mM (inactive)
17,COc1ccc2c(c1)OC1(O)COc3cc(OC)c(OC)cc3C1=C2 (centres undefined),> 4 mM (inactive)
18,O=C1NC(=Nc2ccc(O)cc2)S/C1=C/c1ccco1,> 4 mM (inactive)
19,COC(=O)c1scc(S(C)(=O)=O)c1-n1cccc1,> 4 mM (inactive)
20,COc1ncnc(N)c1[N+](=O)[O-],> 4 mM (inactive)
21,Cn1ccc(C(=O)NC(=S)NN2CCOCC2)n1,> 4 mM (inactive)
22,CN(C)S(=O)(=O)N1CCc2ccccc21,> 4 mM (inactive)
23,O=C(NC(=S)NN1CCOCC1)c1cccs1,> 4 mM (inactive)
24,Cc1onc(-c2ccccc2)c1C(=O)Nc1ccncc1,> 4 mM (inactive)

row,Compound,Kd
1,NC(=O)c1cccc2c(=O)oc3ccccc3c12,> 4 mM (inactive)
2,CCOc1ccc(N2C(=O)CCC2=O)cc1,> 4 mM (inactive)
3,c1ccc(SCc2nc(-c3ccncc3)no2)cc1,0.314 mM and 0.167 mM
4,c1ccc(Cc2nnc3sc(-c4cccnc4)nn23)cc1,> 4 mM (inactive)
5,CC1(C)C=CC(=O)[C@@]2(C)C1CC(=O)[C@]1(C)C2CC[C@@]2(C)[C@H](c3ccoc3)OC(=O)C3OC321 (some centres undefined),> 4 mM (inactive)
6,Cn1c(=O)n(C)c2nc([N+](=O)[O-])c(Cl)cc21,> 4 mM (inactive)
7,O=C(CSc1ncn[nH]1)c1ccccc1,> 4 mM (inactive)
8,O=c1ccc2cc(O[C@@H]3O[C@H](CO)[C@@H](O)[C@H](O)[C@H]3O)c(O)cc2o1,> 4 mM (inactive)
9,O=C(NCc1ccccn1)c1ccccc1Cl,> 4 mM (inactive)
10,O=C(Nc1cnccn1)c1cccs1,> 4 mM (inactive)
11,C[C@H]1[C@H](C)CC[C@]2(C(=O)O)CC[C@]3(C)C(=CCC4[C@@]5(C)C[C@@H](O)[C@H](O)[C@@](C)(CO)C5[C@H](O)C[C@]43C)[C@H]12 (some centres undefined),> 4 mM (inactive)
12,Cc1nnc2sc(-c3csc4c3CCCC4)nn12,> 4 mM (inactive)
13,O=C(Nc1ccc(F)cc1F)c1ccco1,> 4 mM (inactive)
14,Cc1cc(C)cc(OC(=O)N2CCOCC2)c1,> 4 mM (inactive)
15,CC1(O)CC2C(CC1O)C2(C)C (centres undefined),> 4 mM (inactive)
16,CC(=O)Oc1c2c(c3c(c1CC=C(C)C)O[C@]14C(=C[C@@H]5CC1C(C)(C)OC4(C/C=C(\C)C(=O)O)C5=O)C3=O)OC(C)(CCC=C(C)C)C=C2 (some centres undefined),> 4 mM (inactive)
17,CCSc1nc(=S)n(CC)c(C)c1C(C)=O,> 4 mM (inactive)
18,CC1(C)N([O-])c2cc([N+](=O)[O-])ccc2[N+]1=O,> 4 mM (inactive)
19,COc1ccc(-c2coc3c(O)c(OC)ccc3c2=O)cc1,> 4 mM (inactive)
20,COc1ccc(CN2CCNC(=O)C2CC(=O)O)cc1C (centres undefined),> 4 mM (inactive)
21,CN(C)CC(O)C1CCOC(C)(C)C1 (centres undefined),> 4 mM (inactive)
22,Cc1cc(OC(=O)c2c(C)cc(O)cc2O)cc(O)c1C(=O)O,> 4 mM (inactive)
23,Cc1ccc(SCc2nc(-c3cccnc3)no2)cc1,> 4 mM (inactive)
24,CC(=O)NCc1nc2ccccc2[nH]1,> 4 mM (inactive)

row,Compound,Kd
1,N#Cc1cnn2c(C(F)(F)F)cc(C(F)(F)F)nc12,> 4 mM (inactive)
2,CCOC(=O)N1CCN(c2ncnc3c2cnn3C)CC1,> 4 mM (inactive)
3,CCOC(=O)CC1Sc2ccccc2NC1=O (centres undefined),> 4 mM (inactive)
4,CN(C)S(=O)(=O)c1ccc(N2CCOCC2)nc1,> 4 mM (inactive)
5,C/C=C(\C)c1nnc(NC(=O)C(C)C)s1,> 4 mM (inactive)
6,CCOCC(=O)N1CCc2ccccc21,> 4 mM (inactive)
7,CCNC(=S)N1CCC(C(N)=O)CC1,> 4 mM (inactive)
8,Cc1cc(C(=O)Nc2ccon2)cs1,> 4 mM (inactive)
9,Cc1cc(Cl)ccc1OCC(=O)N1CCOCC1,inactive
10,O=C(O)c1cccnc1,> 4 mM (inactive)
11,Cc1cc(C)n(-c2ccc(N)cc2)n1,> 4 mM (inactive)
12,NC(CC(=O)O)c1ccccc1 (centres undefined),> 4 mM (inactive)
13,CSc1nsc(SCc2cnc(C)nc2N)n1,> 4 mM (inactive)
14,COc1ccc2c(c1)OCC(Cc1ccc(OC)c(OC)c1)C2=O (centres undefined),> 4 mM (inactive)
15,Cc1cc(C(=O)Nc2sc3c(c2C#N)CCC3)no1,> 4 mM (inactive)
16,CCSc1n[nH]c(=O)[nH]c1=O,> 4 mM (inactive)
17,CC1CC2(NC(=O)NC2=O)C(C)CN1C (centres undefined),> 4 mM (inactive)
18,S=C(c1ccc(N2CCOCC2)cc1)N1CCOCC1,> 4 mM (inactive)
19,O=S(=O)(Cc1ccc(Cl)cc1)N1CCCC1,> 4 mM (inactive)
20,CC(=O)Nc1cc(S(=O)(=O)N(C)C)ccc1Cl,> 4 mM (inactive)
21,O=C(NCc1ccco1)c1nc2ncccn2n1,> 4 mM (inactive)
22,O=C(NCO)c1ccc([N+](=O)[O-])cc1,> 4 mM (inactive)
23,O=C1NC(=S)N/C1=C\c1ccccc1,> 4 mM (inactive)
